Reference: patent US10251395B2, “Substituted furano-/thienocycloalkylamino-2-pyrimidine derivatives and use thereof for controlling undesired plant growth” (Bayer CropScience Aktiengesellschaft, priority 2015, dated 2019)

Legend:
Stellaria media [1] = assay: Post-emergence herbicidal effect; type: in vivo; conditions: assessed visually after about 3 weeks vs untreated controls
How it was run: (§1)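 Ratings are visual percentages taken around 3 weeks after treatment, compared with untreated plants. Treatment consisted of an aqueous spray of WP or EC formulations, with 0.2% wetting agent, onto one-leaf-stage weeds raised from seed in sandy loam.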

Amaranthus retroflexus [2] = assay: Post-emergence herbicidal effect; type: in vivo; conditions: assessed visually after about 3 weeks vs untreated controls
How it was run: as §1

Alopecurus myosuroides [3] = assay: Post-emergence herbicidal effect; type: in vivo; conditions: assessed visually after about 3 weeks vs untreated controls
How it was run: as §1

Veronica persica [4] = assay: Post-emergence herbicidal effect; type: in vivo; conditions: assessed visually after about 3 weeks vs untreated controls
How it was run: as §1

Ipomoea purpurea = assay: Post-emergence herbicidal effect; type: in vivo; conditions: assessed visually after about 3 weeks vs untreated controls
How it was run: as §1

Viola tricolor [5] = assay: Post-emergence herbicidal effect; type: in vivo; conditions: assessed visually after about 3 weeks vs untreated controls
How it was run: as §1

Matricaria inodora [6] = assay: Post-emergence herbicidal effect; type: in vivo; conditions: assessed visually after about 3 weeks vs untreated controls
How it was run: as §1

Setaria viridis [7] = assay: Post-emergence herbicidal effect; type: in vivo; conditions: assessed visually after about 3 weeks vs untreated controls
How it was run: as §1

Abutilon theophrasti [8] = assay: Post-emergence herbicidal effect; type: in vivo; conditions: assessed visually after about 3 weeks vs untreated controls
How it was run: as §1

Echinochloa crus-galli [9] = assay: Post-emergence herbicidal effect; type: in vivo; conditions: assessed visually after about 3 weeks vs untreated controls
How it was run: as §1

Lolium multiflorum [10] = assay: Post-emergence herbicidal effect; type: in vivo; conditions: assessed visually after about 3 weeks vs untreated controls
How it was run: as §1

Avena fatua [11] = assay: Post-emergence herbicidal effect; type: in vivo; conditions: assessed visually after about 3 weeks vs untreated controls
How it was run: as §1

Polygonum convolvulus [12] = assay: Post-emergence herbicidal effect; type: in vivo; conditions: assessed visually after about 3 weeks vs untreated controls
How it was run: as §1

Stellaria media [13] = assay: Pre-emergence herbicidal effect; type: in vivo; conditions: scored visually after 3 weeks
How it was run: (§2)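 Seeds sown in sandy loam in wood-fiber pots and covered with soil; WP or EC formulations applied to the soil surface as aqueous suspension or emulsion at 600 to 800 L/ha water with 0.2% wetting agent. Greenhouse, 3 weeks; damage scored visually versus untreated controls (100% = plants died, 0% = like control).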

Amaranthus retroflexus [14] = assay: Pre-emergence herbicidal effect; type: in vivo; conditions: scored visually after 3 weeks
How it was run: as §2

Alopecurus myosuroides [15] = assay: Pre-emergence herbicidal effect; type: in vivo; conditions: scored visually after 3 weeks
How it was run: as §2

Veronica persica [16] = assay: Pre-emergence herbicidal effect; type: in vivo; conditions: scored visually after 3 weeks
How it was run: as §2

Cyperus esculentus = assay: Pre-emergence herbicidal effect; type: in vivo; conditions: scored visually after 3 weeks
How it was run: as §2

Viola tricolor [17] = assay: Pre-emergence herbicidal effect; type: in vivo; conditions: scored visually after 3 weeks
How it was run: as §2

Matricaria inodora [18] = assay: Pre-emergence herbicidal effect; type: in vivo; conditions: scored visually after 3 weeks
How it was run: as §2

Setaria viridis [19] = assay: Pre-emergence herbicidal effect; type: in vivo; conditions: scored visually after 3 weeks
How it was run: as §2

Abutilon theophrasti [20] = assay: Pre-emergence herbicidal effect; type: in vivo; conditions: scored visually after 3 weeks
How it was run: as §2

Echinochloa crus-galli [21] = assay: Pre-emergence herbicidal effect; type: in vivo; conditions: scored visually after 3 weeks
How it was run: as §2

Lolium multiflorum [22] = assay: Pre-emergence herbicidal effect; type: in vivo; conditions: scored visually after 3 weeks
How it was run: as §2

Avena fatua [23] = assay: Pre-emergence herbicidal effect; type: in vivo; conditions: scored visually after 3 weeks
How it was run: as §2

Polygonum convolvulus [24] = assay: Pre-emergence herbicidal effect; type: in vivo; conditions: scored visually after 3 weeks
How it was run: as §2

logP (HCOOH) = type: physicochemical; conditions: HCOOH (formic acid)
From the text: Table 2 (physicochemical characterization of selected synthesis examples)

Cc1sc2c(c1C)C(Nc1ncc(C(F)(F)F)c(N)n1)CCC2 (centres unmarked) [compound 213, N2-(2,3-Dimethyl-4,5,6,7-tetrahydrobenzothiophen-4-yl)-5-(trifluoromethyl)pyrimidine-2,4-diamine]
50%: post-emergence efficacy SETVI (Setaria viridis [7]; 80 g/ha)
100%: post-emergence efficacy VIOTR (Viola tricolor [5]; 320 g/ha) | STEME pre-emergence efficacy (herbicidal activity) (Stellaria media [13]; Dosage 80 g/ha) | STEME pre-emergence efficacy (herbicidal activity) (Stellaria media [13]; Dosage 320 g/ha) | AMARE pre-emergence efficacy (herbicidal activity) (Amaranthus retroflexus [14]; Dosage 80 g/ha) | AMARE pre-emergence efficacy (herbicidal activity) (Amaranthus retroflexus [14]; Dosage 320 g/ha) | ALOMY pre-emergence efficacy (herbicidal activity) (Alopecurus myosuroides [15]; Dosage 80 g/ha) | ALOMY pre-emergence efficacy (herbicidal activity) (Alopecurus myosuroides [15]; Dosage 320 g/ha) | VERPE pre-emergence efficacy (herbicidal activity) (Veronica persica [16]; Dosage 80 g/ha) | VERPE pre-emergence efficacy (herbicidal activity) (Veronica persica [16]; Dosage 320 g/ha) | VIOTR pre-emergence efficacy (herbicidal activity) (Viola tricolor [17]; Dosage 80 g/ha) | VIOTR pre-emergence efficacy (herbicidal activity) (Viola tricolor [17]; Dosage 320 g/ha) | MATIN pre-emergence efficacy (herbicidal activity) (Matricaria inodora [18]; Dosage 80 g/ha) | MATIN pre-emergence efficacy (herbicidal activity) (Matricaria inodora [18]; Dosage 320 g/ha) | SETVI pre-emergence efficacy (herbicidal activity) (Setaria viridis [19]; Dosage 80 g/ha) | SETVI pre-emergence efficacy (herbicidal activity) (Setaria viridis [19]; Dosage 320 g/ha) | ABUTH pre-emergence efficacy (herbicidal activity) (Abutilon theophrasti [20]; Dosage 320 g/ha) | ECHCG pre-emergence efficacy (herbicidal activity) (Echinochloa crus-galli [21]; Dosage 320 g/ha) | LOLMU pre-emergence efficacy (herbicidal activity) (Lolium multiflorum [22]; Dosage 320 g/ha) | AVEFA pre-emergence efficacy (herbicidal activity) (Avena fatua [23]; Dosage 320 g/ha) | POLCO pre-emergence efficacy (herbicidal activity) (Polygonum convolvulus [24]; Dosage 320 g/ha)
90%: post-emergence efficacy STEME (Stellaria media [1]; 320 g/ha) | post-emergence efficacy AMARE (Amaranthus retroflexus [2]; 320 g/ha) | post-emergence efficacy ALOMY (Alopecurus myosuroides [3]; 320 g/ha) | post-emergence efficacy VERPE (Veronica persica [4]; 320 g/ha) | post-emergence efficacy PHBPU (Ipomoea purpurea; 320 g/ha) | post-emergence efficacy VIOTR (Viola tricolor [5]; 80 g/ha) | post-emergence efficacy MATIN (Matricaria inodora [6]; 320 g/ha) | post-emergence efficacy SETVI (Setaria viridis [7]; 320 g/ha) | post-emergence efficacy ABUTH (Abutilon theophrasti [8]; 320 g/ha) | post-emergence efficacy ECHCG (Echinochloa crus-galli [9]; 320 g/ha) | post-emergence efficacy POLCO (Polygonum convolvulus [12]; 320 g/ha) | ECHCG pre-emergence efficacy (herbicidal activity) (Echinochloa crus-galli [21]; Dosage 80 g/ha) | POLCO pre-emergence efficacy (herbicidal activity) (Polygonum convolvulus [24]; Dosage 80 g/ha)
2.66: chromatographic logP (logP (HCOOH))
80%: post-emergence efficacy STEME (Stellaria media [1]; 80 g/ha) | post-emergence efficacy AMARE (Amaranthus retroflexus [2]; 80 g/ha) | post-emergence efficacy VERPE (Veronica persica [4]; 80 g/ha) | post-emergence efficacy ABUTH (Abutilon theophrasti [8]; 80 g/ha) | post-emergence efficacy LOLMU (Lolium multiflorum [10]; 80 g/ha) | post-emergence efficacy LOLMU (Lolium multiflorum [10]; 320 g/ha) | post-emergence efficacy AVEFA (Avena fatua [11]; 80 g/ha) | post-emergence efficacy AVEFA (Avena fatua [11]; 320 g/ha) | CYPES pre-emergence efficacy (herbicidal activity) (Cyperus esculentus; Dosage 80 g/ha) | CYPES pre-emergence efficacy (herbicidal activity) (Cyperus esculentus; Dosage 320 g/ha) | LOLMU pre-emergence efficacy (herbicidal activity) (Lolium multiflorum [22]; Dosage 80 g/ha)

Cc1cc2c(s1)CCCC2Nc1ncc(C#N)c(N)n1 (centres unmarked) [compound 282]
80%: post-emergence efficacy VERPE (Veronica persica [4]; 80 g/ha) | post-emergence efficacy PHBPU (Ipomoea purpurea; 80 g/ha) | CYPES pre-emergence efficacy (herbicidal activity) (Cyperus esculentus; Dosage 80 g/ha) | ABUTH pre-emergence efficacy (herbicidal activity) (Abutilon theophrasti [20]; Dosage 80 g/ha) | ABUTH pre-emergence efficacy (herbicidal activity) (Abutilon theophrasti [20]; Dosage 320 g/ha) | AVEFA pre-emergence efficacy (herbicidal activity) (Avena fatua [23]; Dosage 80 g/ha)
90%: post-emergence efficacy VERPE (Veronica persica [4]; 320 g/ha) | post-emergence efficacy PHBPU (Ipomoea purpurea; 320 g/ha) | post-emergence efficacy MATIN (Matricaria inodora [6]; 80 g/ha) | post-emergence efficacy MATIN (Matricaria inodora [6]; 320 g/ha) | post-emergence efficacy ABUTH (Abutilon theophrasti [8]; 80 g/ha) | post-emergence efficacy ABUTH (Abutilon theophrasti [8]; 320 g/ha) | post-emergence efficacy POLCO (Polygonum convolvulus [12]; 80 g/ha) | post-emergence efficacy POLCO (Polygonum convolvulus [12]; 320 g/ha) | AVEFA pre-emergence efficacy (herbicidal activity) (Avena fatua [23]; Dosage 320 g/ha)
100%: post-emergence efficacy STEME (Stellaria media [1]; 80 g/ha) | post-emergence efficacy STEME (Stellaria media [1]; 320 g/ha) | post-emergence efficacy AMARE (Amaranthus retroflexus [2]; 80 g/ha) | post-emergence efficacy AMARE (Amaranthus retroflexus [2]; 320 g/ha) | post-emergence efficacy ALOMY (Alopecurus myosuroides [3]; 80 g/ha) | post-emergence efficacy ALOMY (Alopecurus myosuroides [3]; 320 g/ha) | post-emergence efficacy VIOTR (Viola tricolor [5]; 80 g/ha) | post-emergence efficacy VIOTR (Viola tricolor [5]; 320 g/ha) | post-emergence efficacy SETVI (Setaria viridis [7]; 80 g/ha) | post-emergence efficacy SETVI (Setaria viridis [7]; 320 g/ha) | post-emergence efficacy ECHCG (Echinochloa crus-galli [9]; 80 g/ha) | post-emergence efficacy ECHCG (Echinochloa crus-galli [9]; 320 g/ha) | post-emergence efficacy LOLMU (Lolium multiflorum [10]; 80 g/ha) | post-emergence efficacy LOLMU (Lolium multiflorum [10]; 320 g/ha) | post-emergence efficacy AVEFA (Avena fatua [11]; 80 g/ha) | post-emergence efficacy AVEFA (Avena fatua [11]; 320 g/ha) | STEME pre-emergence efficacy (herbicidal activity) (Stellaria media [13]; Dosage 80 g/ha) | STEME pre-emergence efficacy (herbicidal activity) (Stellaria media [13]; Dosage 320 g/ha) | AMARE pre-emergence efficacy (herbicidal activity) (Amaranthus retroflexus [14]; Dosage 80 g/ha) | AMARE pre-emergence efficacy (herbicidal activity) (Amaranthus retroflexus [14]; Dosage 320 g/ha) | ALOMY pre-emergence efficacy (herbicidal activity) (Alopecurus myosuroides [15]; Dosage 80 g/ha) | ALOMY pre-emergence efficacy (herbicidal activity) (Alopecurus myosuroides [15]; Dosage 320 g/ha) | VERPE pre-emergence efficacy (herbicidal activity) (Veronica persica [16]; Dosage 80 g/ha) | VERPE pre-emergence efficacy (herbicidal activity) (Veronica persica [16]; Dosage 320 g/ha) | CYPES pre-emergence efficacy (herbicidal activity) (Cyperus esculentus; Dosage 320 g/ha) | VIOTR pre-emergence efficacy (herbicidal activity) (Viola tricolor [17]; Dosage 80 g/ha) | VIOTR pre-emergence efficacy (herbicidal activity) (Viola tricolor [17]; Dosage 320 g/ha) | MATIN pre-emergence efficacy (herbicidal activity) (Matricaria inodora [18]; Dosage 80 g/ha) | MATIN pre-emergence efficacy (herbicidal activity) (Matricaria inodora [18]; Dosage 320 g/ha) | SETVI pre-emergence efficacy (herbicidal activity) (Setaria viridis [19]; Dosage 80 g/ha) | SETVI pre-emergence efficacy (herbicidal activity) (Setaria viridis [19]; Dosage 320 g/ha) | ECHCG pre-emergence efficacy (herbicidal activity) (Echinochloa crus-galli [21]; Dosage 80 g/ha) | ECHCG pre-emergence efficacy (herbicidal activity) (Echinochloa crus-galli [21]; Dosage 320 g/ha) | LOLMU pre-emergence efficacy (herbicidal activity) (Lolium multiflorum [22]; Dosage 80 g/ha) | LOLMU pre-emergence efficacy (herbicidal activity) (Lolium multiflorum [22]; Dosage 320 g/ha) | POLCO pre-emergence efficacy (herbicidal activity) (Polygonum convolvulus [24]; Dosage 80 g/ha) | POLCO pre-emergence efficacy (herbicidal activity) (Polygonum convolvulus [24]; Dosage 320 g/ha)
